Data taken from publication PMC6273913, “New α-Methylene-γ-Butyrolactone Derivatives as Potential Fungicidal Agents: Design, Synthesis and Antifungal Activities” (Molecules, 2016).
Like-named read-outs stand apart in the source and are kept apart here.

Tests used:
[1] = tested on: HepG2 cell line; experiment: Cytotoxic activity against human tumor cells line (HepG2); type: cell-based
[2] = tested on: B. cinerea; experiment: Spore germination assay, fungicidal activity against B. cinerea; type: cell-based, Botrytis cinerea; conditions: Botrytis cinerea, in vitro, n = 3
Experimental: (§1) The fungal pathogens C. lagenarium and B. cinerea was provided by the Agricultural Culture Collection of China (Yangling, Shaanxi, China). C. lagenarium was cultured for 2 weeks at 25 ± 1 °C on potato dextrose agar (PDA) while B. cinerea was cultured at 20 °C on the same medium after being retrieved from the storage tube. Plates were flooded with sterile distilled water, and then conidia were scraped with a glass rod. Mycelial debris was removed by filtration. The spores were harvested and suspended in sterile distilled water containing 0.1% (v/v) Tween 20. The concentration of the spore suspension was adjusted to 1.0 × 10^6 spores/mL with sterilized distilled water following.
(§2) The tested samples (10.0 mg) dissolved in acetone (0.1 mL) were diluted with sterile distilled water to prepare 10.0 mL stock solution, which was further diluted to prepare test solutions in which the final concentration of acetone was <1% (v/v). A series of concentrations of tested samples and one control (1% acetone with sterile distilled water) were separately tested for spore germination of C. lagenarium or B. cinerea. The samples were inoculated with spore suspension of C. lagenarium or B. cinerea containing 1.0 × 10^6 spores/mL. Aliquots of 10 μL of prepared spore suspension were placed on separate glass slides in triplicate. Slides containing the spores were incubated in a moisture chamber at 25 °C for 6~8 h. Each slide was then observed under the microscope for spore germination. Spores were considered to have germinated if the length of the germ tube was at least half the length of the spore. Afterward, spore germination was stopped by applying a drop of lactophenol-cotton blue to the inoculation sites on plates. The numbers of generated spores were counted under a microscope (Olympus BX61, Tokyo, Japan), and the percentage of germinated spores was calculated. Chlorothalonil was used as the positive control.

[3] = tested on: C. lagenarium; experiment: Spore germination assay, fungicidal activity against C. lagenarium; type: cell-based, Colletotrichum lagenarium; conditions: Colletotrichum orbiculare
Experimental: as §1, §2

[4] = Table 1, from IC50 in μM, read-out: pIC50, C. lagenarium (converted)
[5] = Table 2, fungicidal activity against C. lagenarium used for QSAR, read-out: pIC50 (converted)
[6] = Table 4, experimental, C. lagenarium, read-out: Exp. pIC50 (converted)
[7] = Table 6, read-out: IC50 (μM) (against C. lagenarium)
[8] = in vitro, spore germination, n = 3, read-out: IC50, C. lagenarium

SMILES	melting point [°C]	IC50 [1] [µM]	IC50 [2] [µM]	IC50 [3, 4] [µM]	IC50 [3, 5] [µM]	IC50 [3, 6] [µM]	IC50 [3, 7] [µM]	IC50 [3, 8] [µM]
C=C1CC(c2ccccc2OCC)OC1=O (centres unmarked) [Compound 5r, 4-(2-Ethoxyphenyl)-2-methylenebutyrolactone]		38.4	549	520	520	520	519	519
C=C1CC(c2cccc(OCCCC)c2)OC1=O (centres unmarked) [Compound 6o, 4-(3-Butoxyphenyl)-2-methylenebutyrolactone]		> 108	280	242	242	242	242	242
C=C1CC(c2ccc(OC(=O)c3cccc(C#N)c3)cc2)OC1=O (centres unmarked) [Compound 4g, 4-[4-(3-Benzonitrile)phenyl]-2-methylenebutyrolactone]		18.3	60.6	52.8	52.8	52.8	52.9	52.9
C=C1CC(c2ccc(OC(=O)c3cccc(Cl)c3)cc2)OC1=O (centres unmarked) [Compound 4b, 4-[4-(3-Chlorobenzoyloxy)phenyl]-2-methylenebutyrolactone]	168.8 to 169.2	22.4	22.1	8.99	8.99	8.99	8.99	8.99
C=C1CC(c2ccc(O)cc2)OC1=O (centres unmarked) [Compound 4, 4-(4-Hydroxyphenyl)-2-methylenebutyrolactone]	79 to 81	23.3	208	161			161	161
C=C1CC(c2ccc(OC(=O)c3cccc(C)c3)cc2)OC1=O (centres unmarked) [Compound 4k, 4-[4-(3-Methylbenzoyloxy)phenyl]-2-methylenebutyrolactone]	186.2 to 186.6	28.5	193	178	178	178	178	178
C=C1CC(c2ccccc2OC(=O)CCC)OC1=O (centres unmarked) [Compound 5m, 4-[2-(Butyryloxy)phenyl]-2-methylenebutyrolactone]		23.8	206	174	174	174	174	174
C=C1CC(c2cccc(OC(=O)C=Cc3ccccc3)c2)OC1=O (centres unmarked) [Compound 6n, 4-(3-Cinnamoyloxyphenyl)-2-methylenebutyrolactone]		15.7	40.3	24.3	24.3	24.3	24.2	24.2
C=C1CC(c2ccccc2OC(=O)c2cccc(Br)c2)OC1=O (centres unmarked) [Compound 5d, 4-[2-(3-Bromobenzoyloxy)phenyl]-2-methylenebutyrolactone]	189.7 to 190.4	35.6	22.9	13.4	13.4	13.4	13.4	13.4
C=C1CC(c2ccc(OC(=O)CC)cc2)OC1=O (centres unmarked) [Compound 4p, 4-[4-(Propionyloxy)phenyl]-2-methylenebutyrolactone]		19.5	237	207	207	207	207	207
C=C1CC(c2ccc(OC(=O)C=Cc3ccc(O)c(OC)c3)cc2)OC1=O (centres unmarked) [Compound 4q]		27.3	21.5	8.93		8.93	8.93	8.93
C=C1CC(c2ccc(OC(=O)c3ccccc3)cc2)OC1=O (centres unmarked) [Compound 4i, 4-(4-Benzoyloxyphenyl)-2-methylenebutyrolactone]	223.3 to 223.7	5.3	112	95.3	95.3	95.3	95.4	95.4
C=C1CC(c2ccc(OC(=O)c3ccc(Br)cc3)cc2)OC1=O (centres unmarked) [Compound 4f, 4-[4-(4-Bromobenzoyloxy)phenyl]-2-methylenebutyrolactone]	175.1 to 175.6		23	14.4	14.4	14.4		14.4
C=C1CC(c2ccccc2OC(=O)c2cccc(Cl)c2)OC1=O (centres unmarked) [Compound 5a, 4-[2-(3-Chlorobenzoyloxy)phenyl]-2-methylenebutyrolactone]	201.3 to 201.8	28.4	30.6	16.8	16.8	16.8	16.8	16.8
C=C1CC(c2ccccc2OCCC)OC1=O (centres unmarked) [Compound 5p, 4-(2-Propoxylphenyl)-2-methylenebutyrolactone]		> 132	525	499	499	499	499	499
C=C1CC(c2ccc(OC(=O)c3ccc(Cl)cc3)cc2)OC1=O (centres unmarked) [Compound 4c, 4-[4-(4-Chlorobenzoyloxy)phenyl]-2-methylenebutyrolactone]	171.3 to 171.6		27.3	12.7	12.7	12.7		12.7

Now from value to molecule, other results behind:

melting point [°C]	SMILES	IC50 [1] [µM]	IC50 [2] [µM]	IC50 [3, 4] [µM]	IC50 [3, 5] [µM]	IC50 [3, 6] [µM]	IC50 [3, 7] [µM]	IC50 [3, 8] [µM]
178.3 to 178.9	C=C1CC(c2cccc(OC(=O)c3ccccc3C)c2)OC1=O (centres unmarked) [Compound 6g, 4-[3-(2-Methylbenzoyloxy)phenyl]-2-methylenebutyrolactone]	22	180	159	159	159	159	159
78 to 79	C=C1CC(c2cccc(O)c2)OC1=O (centres unmarked) [Compound 6, 4-(3-Hydroxyphenyl)-2-methylenebutyrolactone]	17.9	140	117			117	117
205.7 to 206.4	C=C1CC(c2cccc(OC(=O)c3cccc(Cl)c3)c2)OC1=O (centres unmarked) [Compound 6a, 4-[3-(3-Chlorobenzoyloxy)phenyl]-2-methylenebutyrolactone]	30.2	23.3	7.67	7.67	7.67	7.68	7.68
179.3 to 179.9	C=C1CC(c2ccccc2OC(=O)c2cccc(C)c2)OC1=O (centres unmarked) [Compound 5i, 4-[2-(3-Methylbenzoyloxy)phenyl]-2-methylenebutyrolactone]	85.2	194	182	182	182	182	182
204.5 to 204.8	C=C1CC(c2cccc(OC(=O)c3ccccc3)c2)OC1=O (centres unmarked) [Compound 6f, 4-(3-Benzoyloxyphenyl)-2-methylenebutyrolactone]	18.5	102	73.1	73.1	73.1	73.1	73.1
178.6 to 178.9	C=C1CC(c2cccc(OC(=O)c3cccc(Br)c3)c2)OC1=O (centres unmarked) [Compound 6d, 4-[3-(3-Bromobenzoyloxy)phenyl]-2-methylenebutyrolactone]	20.9	26	8.17	8.17	8.17	8.17	8.17
180.3 to 180.8	C=C1CC(c2ccccc2OC(=O)c2cccc(OC)c2)OC1=O (centres unmarked) [Compound 5l, 4-[2-(3-Methoxylbenzoyloxy)phenyl]-2-methylenebutyrolactone]	29	303	284	284	284	284	284
175.3 to 175.8	C=C1CC(c2cccc(OC(=O)c3ccccc3Br)c2)OC1=O (centres unmarked) [Compound 6c, 4-[3-(2-Bromobenzoyloxy)phenyl]-2-methylenebutyrolactone]		27.4	10.3	10.3	10.3		10.3
168.5 to 168.9	C=C1CC(c2cccc(OC(=O)c3ccc(C)cc3)c2)OC1=O (centres unmarked) [Compound 6i, 4-[3-(4-Methylbenzoyloxy)phenyl]-2-methylenebutyrolactone]		164	136	136	136		137
